Data on eleven compounds can be found in patent US12006330B2, “Substituted macrocyclic compounds and related methods of treatment” (Alkermes, Inc., priority 2020, dated 2024).

What is called EC50 is the concentration needed to bring the measured effect to its halfway point.

In one data set the test system is MDCK-MDR1 cells. Nature of the data set: MDCK-MDR1 permeability assay. Type of data set: in vitro ADME. The following applies: MDCK-MDR1 cells; test compound 3 μM; 2 hours at 37 degrees C; apical to basolateral. The procedure, abridged: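 Test compound at 3 μM in HBSS was dosed apical-to-basolateral (with 100 μM Lucifer Yellow) and basolateral-to-apical across MDCK-MDR1 monolayers at 37 °C for 2 h. Receiver and donor samples were quantified by LC-MS/MS. Papp = dQ/dt×1/A×C0, efflux ratio = Papp(B→A)/Papp(A→B), and percent recovery was also derived.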
On to `Cc1ncnc2c1[C@H]1CC[C@H](CC1)OCC1[C@@H](NS(C)(=O)=O)CCCN1C(=O)CO2` (stereo in doubt) [Compound 27], for which the “Papp A → B (10^−6 cm/s)” value is recorded as 0.33 10^−6 cm/s.

The target in another data set is T1, human orexin-2 receptor (OX2R) (Homo sapiens, UniProt O43614).
T1 construct: expressed in transfected cells
T1 sequence (O43614 1-444): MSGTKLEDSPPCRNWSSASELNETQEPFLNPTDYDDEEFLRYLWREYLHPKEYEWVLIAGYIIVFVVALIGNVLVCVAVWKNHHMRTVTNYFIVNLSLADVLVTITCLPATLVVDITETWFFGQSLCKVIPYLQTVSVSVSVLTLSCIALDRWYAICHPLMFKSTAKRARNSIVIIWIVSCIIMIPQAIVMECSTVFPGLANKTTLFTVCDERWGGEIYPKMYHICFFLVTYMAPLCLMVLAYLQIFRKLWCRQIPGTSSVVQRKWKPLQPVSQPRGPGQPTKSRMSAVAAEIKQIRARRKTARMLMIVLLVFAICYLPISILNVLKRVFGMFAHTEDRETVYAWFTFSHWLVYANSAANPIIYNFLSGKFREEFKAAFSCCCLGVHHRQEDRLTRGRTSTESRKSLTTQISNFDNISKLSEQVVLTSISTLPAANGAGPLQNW
In words: Human OX2R IP1 assay. The format is cell-based. Particulars: T-Rex CHO cells stably overexpressing human OX2R; IP1 accumulation; 1 hr at 37 degrees C; mean EC50. An outline of the steps:
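T-Rex CHO cells stably expressing human OX2R, doxycycline-induced (1 μg/mL) overnight, treated with compounds 1 h at 37 °C in pH 7.4 buffer with 50 mM LiCl. IP1 accumulation read by HTRF competitive immunoassay after 1 h at room temperature; agonist EC50 reported as mean ± S.E.M.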
For the compound `COC(=O)N1CCC[C@H](NS(C)(=O)=O)[C@@H]1CO[C@H]1CC[C@@H](c2ccccc2)CC1` [Reference Compound A, methyl (2R,3S)-3-((methylsulfonyl)amino)-2-(((cis-4-phenylcyclohexyl)oxy)methyl)-piperidine-l-carboxylate, reference compound], the EC50 was under 10 nM.

Compound `O=C1COc2ncccc2[C@H]2CC[C@H](CC2)OCC2[C@@H](NS(=O)(=O)C(F)(F)F)CCCN12` (stereo in doubt) [Compound 91] yielded an EC50 of under 10 nM.

`Cc1ncnc2c1[C@H]1CC[C@H](CC1)OCC1[C@@H](NS(=O)(=O)C(F)(F)F)CCCN1C(=O)CO2` (stereo in doubt) [Compound 99] came in with an EC50 of under 10 nM.

In the case of `CC(C)(O)C(=O)N1CC[C@H](NS(C)(=O)=O)[C@@H]1Cc1cccc(-c2cc(F)cc(F)c2)c1F` [Reference Compound B, N-((2S,3S)-1-(2-hydroxy-2-methylpropanoy1)-2-((2,3′,5′-trifluorobipheny1-3-yl)methyl)pyrrolidin-3-yl)methanesulfonamide, reference compound], the EC50 is 10 to 1000 nM.

Turning to `O=C1COc2ccccc2[C@H]2CC[C@H](CC2)OCC2[C@@H](NS(=O)(=O)C(F)(F)F)CCN12` (stereo in doubt) [Compound 100], the EC50 is under 10 nM.

Compound `O=C1COc2nccnc2[C@H]2CC[C@H](CC2)OCC2[C@@H](NS(=O)(=O)C(F)(F)F)CCCN12` (stereo in doubt) [Compound 98] yielded an EC50 of under 10 nM.

`Cc1cccc2c1[C@H]1CC[C@H](CC1)OC[C@H]1[C@@H](NS(C)(=O)=O)CCN1C(=O)CO2` [Compound 20]: the EC50 is under 10 nM.

`Cc1ccnc2c1[C@H]1CC[C@H](CC1)OCC1[C@@H](NS(=O)(=O)C(F)(F)F)CCN1C(=O)CO2` (stereo in doubt) [Compound 94] gave a concentration for a half-maximal effect (EC50) of under 10 nM.

`Cc1ncnc2c1[C@H]1CC[C@H](CC1)OCC1[C@@H](NS(C)(=O)=O)CCCN1C(=O)CO2` (stereo in doubt) [Compound 27] gave a concentration for a half-maximal effect (EC50) of under 10 nM.

In turn, `CC(C)S(=O)(=O)N[C@H]1CCN2C(=O)COc3c(F)cc(F)cc3[C@H]3CC[C@H](CC3)OC[C@@H]12` [Compound 29] showed an EC50 of under 10 nM.

With `O=C1COc2cccc(F)c2[C@H]2CC[C@H](CC2)OCC2[C@@H](NS(=O)(=O)C(F)(F)F)CCCN12` (stereo in doubt) [Compound 95], the EC50 is under 10 nM.
